Laboratory results published in PMC11245557, “Differential potassium channel inhibitory activities of a novel thermostable degradation peptide BmKcug1a-P1 from scorpion medicinal material and its N-terminal truncated/restored peptides” (Scientific Reports, 2024).
Bridge positions count the residues as written; N and C are the ends. Peptide text beside a SMILES is read from it.

Legend:
Format in all cases: cell-based
hKv1.3 channel = biological target: T1, hKv1.3 channel (Homo sapiens, UniProt P22001); experiment: Whole-cell patch clamp, hKv1.3 currents in transfected HEK293T cells; conditions: mean ± SE; for IC50: dose-response fitted with modified Hill equation; for IC50 / inhibition of hKv1.3 channel current: SEM
T1 construct: expressed in transfected cells; host or cells: HEK293T
T1 sequence (P22001 whole entry): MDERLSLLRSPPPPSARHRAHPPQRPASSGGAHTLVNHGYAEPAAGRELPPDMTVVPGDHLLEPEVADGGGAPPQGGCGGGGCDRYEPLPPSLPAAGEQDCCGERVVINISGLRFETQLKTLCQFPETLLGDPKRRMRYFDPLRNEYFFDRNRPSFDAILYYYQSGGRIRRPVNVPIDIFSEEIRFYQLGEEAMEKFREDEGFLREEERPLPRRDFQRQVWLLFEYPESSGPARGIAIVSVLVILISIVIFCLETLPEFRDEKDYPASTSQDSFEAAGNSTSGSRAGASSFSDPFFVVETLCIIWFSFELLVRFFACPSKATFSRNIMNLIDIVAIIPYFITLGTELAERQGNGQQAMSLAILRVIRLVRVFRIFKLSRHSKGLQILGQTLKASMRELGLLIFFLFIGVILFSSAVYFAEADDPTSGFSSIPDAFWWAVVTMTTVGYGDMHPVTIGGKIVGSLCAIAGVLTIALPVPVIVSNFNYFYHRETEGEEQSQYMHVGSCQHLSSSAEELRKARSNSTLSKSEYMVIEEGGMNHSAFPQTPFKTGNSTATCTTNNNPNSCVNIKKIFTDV
Excerpt: (§1) The cDNA fragments encoding potassium channels were provided by others as previously described. The cDNA encoding hKv1.1 channel and hKv1.3 channel were cloned into the pCDNA3.1(+) vector. The cDNA encoding hKv1.2 channel, hKv1.6 channel and hKv3.2 channel were inserted into the pIRES2-EGFP vector.
(§2) HEK293T cell lines were obtained from the BeNa Culture Collection (Xinyang, China) and maintained in DMEM (Dulbecco’s Modified Eagle Medium, Gibco, Pittsburgh, PA, USA) supplemented with 10% fetal bovine serum (FBS, Gibco) and 1% penicillin/streptomycin (Gibco). Cells were passaged using Pancreatin (Gibco). For transfection experiments, HEK293T cells were seeded in appropriate culture vessels and allowed to reach 70–80% confluency. The expression vectors of pEGFP-N1 and potassium channels were co-transfected into HEK293T cells using ExFect Transfection Reagent (Vazyme, Nanjing, China) following its manufacturer’s instructions. Briefly, plasmid DNA and transfection reagent were mixed in serum-free medium, incubated for 15–30 min at room temperature to allow complex formation, and then added to the cells. After 24–48 h transfection, the single positive cells were selected based on the presence of GFP fluorescence to assess the potassium channel inhibiting activities of the peptides using whole cell patch clamp technique.
(§3) An EPC-10 patch-clamp amplifier which was controlled by PatchMaster software (HEKA Elektronik, Lambrecht, Germany) was applied to measure and record the potassium currents for whole-cell. The MPS-2 multichannel microperfusion system (INBIO Inc., Wuhan, China) was applied to exchange the external bath solution with different concentration of peptides. According to the protocol as previously described, the internal patch pipette solution and bath solution were prepared. The peptides were dissolved in Bath solution with 0.01% BSA (Gibco, Pittsburgh, PA, USA) to different concentrations. The potassium currents of hKv1.1, hKv1.2, hKv1.3, hKv1.6 and hKv3.2 channel were generated following the respective protocols as previously described. The results of the electrophysiological experiment are presented as the mean ± SE, and over three cells for each peptide in any concentration were examined ([…]).
(§4) For electrophysiological experiments, we used the ClampFit (Molecular Devices, Sunnyvale, CA, USA) and SigmaPlot software (IBM SPSS, Chicago, IL, USA) to analyze the recorded data. The dose–response relationship between channel current and peptide inhibition is fitted by the modified Hill equation: Ipeptide/Icontrol = 1/{1 + [peptide]/IC50}, in which Ipeptide represent the potassium current under the inhibition of peptide, Icontrol represent the peak current, IC50 is the half-maximum inhibition concentration, and [peptide] represents the concentration of the peptide. The half inhibitory concentration (IC50) was the parameter to be fitted.

hKv3.2 channel = biological target: T2, hKv3.2 channel (Homo sapiens, UniProt Q96PR1); experiment: Whole-cell patch clamp, hKv3.2 currents in transfected HEK293T cells; conditions: 1 μM peptide, mean ± SE, n ≥ 3, SEM
T2 construct: expressed in transfected cells; host or cells: HEK293T
T2 sequence (Q96PR1 1-638): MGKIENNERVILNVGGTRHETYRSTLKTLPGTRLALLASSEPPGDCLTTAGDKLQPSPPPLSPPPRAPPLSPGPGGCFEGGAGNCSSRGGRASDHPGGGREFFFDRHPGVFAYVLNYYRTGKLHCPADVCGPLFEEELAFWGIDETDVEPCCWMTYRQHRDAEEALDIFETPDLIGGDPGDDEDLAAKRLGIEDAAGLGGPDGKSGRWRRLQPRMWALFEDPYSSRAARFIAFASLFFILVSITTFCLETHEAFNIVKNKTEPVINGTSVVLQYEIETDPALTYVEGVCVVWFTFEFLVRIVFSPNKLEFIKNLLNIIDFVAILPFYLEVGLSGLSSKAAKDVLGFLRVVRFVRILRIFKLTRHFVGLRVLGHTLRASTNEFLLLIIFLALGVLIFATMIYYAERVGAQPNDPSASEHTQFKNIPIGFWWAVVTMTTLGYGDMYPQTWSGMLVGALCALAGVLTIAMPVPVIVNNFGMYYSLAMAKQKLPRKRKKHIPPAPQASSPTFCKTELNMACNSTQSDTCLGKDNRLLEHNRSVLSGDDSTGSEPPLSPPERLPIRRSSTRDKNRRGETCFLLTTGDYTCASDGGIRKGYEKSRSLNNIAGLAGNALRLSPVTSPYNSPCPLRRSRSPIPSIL
Excerpt: as §1
as §2, with “Briefly, plasmid DNA and transfection reagent were mixed in serum-free medium, incubated for 15–30 min at room temperature to allow complex formation, and then added to the cells.” left out, “technique. […]” for “technique.”
(§5) For electrophysiological experiments, we used the ClampFit (Molecular Devices, Sunnyvale, CA, USA) and SigmaPlot software (IBM SPSS, Chicago, IL, USA) to analyze the recorded data. […]

hKv1.2 channel = biological target: T3, hKv1.2 channel (Homo sapiens, UniProt P16389); experiment: Whole-cell patch clamp, hKv1.2 currents in transfected HEK293T cells; conditions: mean ± SE
T3 construct: expressed in transfected cells; host or cells: HEK293T
T3 sequence (P16389 whole entry): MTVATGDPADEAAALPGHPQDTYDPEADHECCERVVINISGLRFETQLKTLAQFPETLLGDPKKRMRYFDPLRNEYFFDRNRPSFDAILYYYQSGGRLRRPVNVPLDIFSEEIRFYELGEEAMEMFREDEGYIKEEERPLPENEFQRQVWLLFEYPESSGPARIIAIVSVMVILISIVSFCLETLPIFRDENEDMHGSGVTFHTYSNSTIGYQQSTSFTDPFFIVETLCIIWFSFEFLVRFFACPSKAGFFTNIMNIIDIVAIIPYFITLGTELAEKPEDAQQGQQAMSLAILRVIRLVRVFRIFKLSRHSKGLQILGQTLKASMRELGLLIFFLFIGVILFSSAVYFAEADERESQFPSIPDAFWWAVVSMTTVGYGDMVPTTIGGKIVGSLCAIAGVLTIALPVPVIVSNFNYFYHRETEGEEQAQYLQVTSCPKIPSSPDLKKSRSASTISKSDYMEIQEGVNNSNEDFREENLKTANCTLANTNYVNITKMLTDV
Excerpt: as §1, §2, §3, §4

hKv1.1 channel = biological target: T4, hKv1.1 channel (Homo sapiens, UniProt Q09470); experiment: Whole-cell patch clamp, hKv1.1 currents in transfected HEK293T cells; conditions: 1 μM peptide, mean ± SE, n ≥ 3, SEM
T4 construct: expressed in transfected cells; host or cells: HEK293T
T4 sequence (Q09470 whole entry): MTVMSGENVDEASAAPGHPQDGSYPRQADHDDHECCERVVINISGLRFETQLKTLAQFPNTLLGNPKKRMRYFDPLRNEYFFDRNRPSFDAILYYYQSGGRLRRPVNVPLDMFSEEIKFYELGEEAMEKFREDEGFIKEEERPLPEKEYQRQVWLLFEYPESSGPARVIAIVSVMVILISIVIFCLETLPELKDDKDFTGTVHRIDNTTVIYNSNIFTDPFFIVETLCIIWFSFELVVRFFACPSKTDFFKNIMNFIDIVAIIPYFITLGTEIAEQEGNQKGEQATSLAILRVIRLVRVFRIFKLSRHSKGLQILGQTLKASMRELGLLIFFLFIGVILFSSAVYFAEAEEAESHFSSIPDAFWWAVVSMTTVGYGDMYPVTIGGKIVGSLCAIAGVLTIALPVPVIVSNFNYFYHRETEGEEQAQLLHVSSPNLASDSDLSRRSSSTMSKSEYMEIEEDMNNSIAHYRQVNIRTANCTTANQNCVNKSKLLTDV
Excerpt: as §1
as §2, with “Briefly, plasmid DNA and transfection reagent were mixed in serum-free medium, incubated for 15–30 min at room temperature to allow complex formation, and then added to the cells.” left out, “technique. […]” for “technique.”
as §5

hKv1.6 channel = biological target: T5, hKv1.6 channel (Homo sapiens, UniProt P17658); experiment: Whole-cell patch clamp, hKv1.6 currents in transfected HEK293T cells; conditions: 1 μM peptide, mean ± SE, n ≥ 3, SEM
T5 construct: expressed in transfected cells; host or cells: HEK293T
T5 sequence (P17658 whole entry): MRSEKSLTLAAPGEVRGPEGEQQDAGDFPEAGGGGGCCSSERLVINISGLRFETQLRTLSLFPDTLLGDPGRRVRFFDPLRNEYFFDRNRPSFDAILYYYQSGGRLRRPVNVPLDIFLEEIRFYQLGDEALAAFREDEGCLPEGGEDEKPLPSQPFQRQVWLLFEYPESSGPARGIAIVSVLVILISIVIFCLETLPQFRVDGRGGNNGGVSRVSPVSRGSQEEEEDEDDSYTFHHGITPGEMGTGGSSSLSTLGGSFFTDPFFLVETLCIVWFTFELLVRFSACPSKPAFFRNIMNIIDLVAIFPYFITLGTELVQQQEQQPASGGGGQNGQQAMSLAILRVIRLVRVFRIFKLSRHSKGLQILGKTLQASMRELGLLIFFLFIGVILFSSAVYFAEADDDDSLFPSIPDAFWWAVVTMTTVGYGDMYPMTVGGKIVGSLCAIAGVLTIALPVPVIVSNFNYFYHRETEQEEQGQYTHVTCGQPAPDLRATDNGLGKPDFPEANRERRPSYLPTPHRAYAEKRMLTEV
Excerpt: as §1
as §2, with “Briefly, plasmid DNA and transfection reagent were mixed in serum-free medium, incubated for 15–30 min at room temperature to allow complex formation, and then added to the cells.” left out, “technique. […]” for “technique.”
as §5

[1] = 1 μM peptide, HEK293T, n ≥ 3, SEM

Compound	IC50 (hKv1.3 channel; HEK293T) [nM]	inhibition of potassium currents mediated by hKv3.2 (hKv3.2 channel) [%]	inhibition of hKv1.2 channel current (hKv1.2 channel; 200 nM peptide, SEM) [%]	inhibition of potassium currents mediated by hKv1.2 (hKv1.2 channel; [1]) [%]	inhibition of hKv1.2 channel current (hKv1.2 channel; 5 μM peptide, SEM) [%]	inhibition of hKv1.2 channel current (hKv1.2 channel; 25 μM peptide, SEM) [%]	IC50 (hKv1.2 channel; HEK293T, dose-response fitted with modified Hill equation, SEM) [nM]	inhibition of potassium currents mediated by hKv1.1 (hKv1.1 channel) [%]	inhibition of potassium currents mediated by hKv1.6 (hKv1.6 channel) [%]	inhibition of hKv1.3 channel current (hKv1.3 channel; 40 nM peptide) [%]	inhibition of hKv1.3 channel current (hKv1.3 channel; 200 nM peptide) [%]	inhibition of potassium currents mediated by hKv1.3 (hKv1.3 channel; [1]) [%]	inhibition of hKv1.3 channel current (hKv1.3 channel; 5 μM peptide) [%]	inhibition of hKv1.3 channel current (hKv1.3 channel; 25 μM peptide) [%]
CSCC[C@@H]1NC(=O)[C@@H]2CSSC[C@H](NC(=O)[C@H](CO)NC(=O)[C@@H](NC(=O)[C@@H](N)CC(N)=O)C(C)C)C(=O)N[C@@H](CO)C(=O)N[C@@H](C)C(=O)N[C@@H](CO)C(=O)N[C@@H](CO)C(=O)N[C@@H](CCC(N)=O)C(=O)N[C@H]3CSSC[C@H](NC(=O)[C@H](CCCCN)NC(=O)[C@H](CO)NC(=O)[C@H](CC(N)=O)NC1=O)C(=O)N[C@@H](CCCNC(=N)N)C(=O)N[C@H](C(=O)N[C@@H](Cc1ccc(O)cc1)C(=O)N[C@@H](CO)C(=O)O)CSSC[C@H](NC(=O)[C@H](C(C)C)NC(=O)[C@@H]1CCCN1C(=O)[C@H](Cc1c[nH]c4ccccc14)NC3=O)C(=O)N[C@@H](CCC(=O)O)C(=O)N[C@@H](CCCCN)C(=O)N[C@@H](CC(C)C)C(=O)N[C@@H](Cc1ccccc1)C(=O)NCC(=O)N[C@@H]([C@@H](C)O)C(=O)N[C@@H](Cc1ccc(O)cc1)C(=O)N[C@@H](CCCNC(=N)N)C(=O)NCC(=O)N[C@@H](CCCCN)C(=O)N2 [BmKcug1a-P1-D2] (H-NVSCSASSQCWPVCEKLFGTYRGKCMNSKCRCYS-OH; disulfide 4-25, 10-30, 14-32)	1660 ± 180													
CSCC[C@@H]1NC(=O)[C@@H]2CSSC[C@H](NC(=O)[C@@H](N)CO)C(=O)N[C@@H](CO)C(=O)N[C@@H](C)C(=O)N[C@@H](CO)C(=O)N[C@@H](CO)C(=O)N[C@@H](CCC(N)=O)C(=O)N[C@H]3CSSC[C@H](NC(=O)[C@H](CCCCN)NC(=O)[C@H](CO)NC(=O)[C@H](CC(N)=O)NC1=O)C(=O)N[C@@H](CCCNC(=N)N)C(=O)N[C@H](C(=O)N[C@@H](Cc1ccc(O)cc1)C(=O)N[C@@H](CO)C(=O)O)CSSC[C@H](NC(=O)[C@H](C(C)C)NC(=O)[C@@H]1CCCN1C(=O)[C@H](Cc1c[nH]c4ccccc14)NC3=O)C(=O)N[C@@H](CCC(=O)O)C(=O)N[C@@H](CCCCN)C(=O)N[C@@H](CC(C)C)C(=O)N[C@@H](Cc1ccccc1)C(=O)NCC(=O)N[C@@H]([C@@H](C)O)C(=O)N[C@@H](Cc1ccc(O)cc1)C(=O)N[C@@H](CCCNC(=N)N)C(=O)NCC(=O)N[C@@H](CCCCN)C(=O)N2 [BmKcug1a-P1-D4] (H-SCSASSQCWPVCEKLFGTYRGKCMNSKCRCYS-OH; disulfide 2-23, 8-28, 12-30 (inferred); N-terminus and C-terminus assumed)	2210 ± 280													
CSCC[C@@H]1NC(=O)[C@@H]2CSSC[C@H](NC(=O)[C@H](CO)NC(=O)[C@@H](NC(=O)[C@H](CC(N)=O)NC(=O)[C@@H](NC(=O)[C@@H](N)Cc3ccccc3)[C@@H](C)O)C(C)C)C(=O)N[C@@H](CO)C(=O)N[C@@H](C)C(=O)N[C@@H](CO)C(=O)N[C@@H](CO)C(=O)N[C@@H](CCC(N)=O)C(=O)N[C@H]3CSSC[C@H](NC(=O)[C@H](CCCCN)NC(=O)[C@H](CO)NC(=O)[C@H](CC(N)=O)NC1=O)C(=O)N[C@@H](CCCNC(=N)N)C(=O)N[C@H](C(=O)N[C@@H](Cc1ccc(O)cc1)C(=O)N[C@@H](CO)C(=O)O)CSSC[C@H](NC(=O)[C@H](C(C)C)NC(=O)[C@@H]1CCCN1C(=O)[C@H](Cc1c[nH]c4ccccc14)NC3=O)C(=O)N[C@@H](CCC(=O)O)C(=O)N[C@@H](CCCCN)C(=O)N[C@@H](CC(C)C)C(=O)N[C@@H](Cc1ccccc1)C(=O)NCC(=O)N[C@@H]([C@@H](C)O)C(=O)N[C@@H](Cc1ccc(O)cc1)C(=O)N[C@@H](CCCNC(=N)N)C(=O)NCC(=O)N[C@@H](CCCCN)C(=O)N2 [BmKcug1a-P1] (H-FTNVSCSASSQCWPVCEKLFGTYRGKCMNSKCRCYS-OH; disulfide 6-27, 12-32, 16-34)	1540 ± 280	6.5 ± 0.9	12.6 ± 3.3	37.7 ± 7.4	64.1 ± 4.5	83.9 ± 2.2	2120 ± 270	1.9 ± 0.3	3.8 ± 1.6	7.0 ± 0.5	18.3 ± 2.1	47.3 ± 3.5	65.2 ± 2.3	82.0 ± 0.6
